Data: paper PMC11477000, “Enantioselective Binding of Proton Pump Inhibitors to Alpha1-Acid Glycoprotein and Human Serum Albumin—A Chromatographic, Spectroscopic, and In Silico Study” (International Journal of Molecular Sciences, 2024)

Legend:
[1] = target: T1, human serum albumin (HSA) (Homo sapiens, UniProt P02768); experiment: Displacement chromatography on HSA column with warfarin and ibuprofen as competitors; type: binding; conditions: IPA:10 mM pH 7 phosphate buffer 1:99, 25 °C
Method: For identification of the binding site of HSA, a displacement chromatography and fluorescence displacement study were performed. In the case of chromatography, to the mobile phase, increasing concentrations of the competitors, warfarin and ibuprofen, that are known to bind to specific binding sites on HSA, Sudlow site I and Sudlow site II, respectively, were added. In the case of the fluorescence displacement study, the fluorescence quenching data of the PPI-HSA system in the presence of warfarin and ibuprofen were investigated.
(Chromatographic parameter: Column temperature: 25 °C,
mobile phase: IPA : 10 mM pH 7 sodium phosphate buffer 1:99, flow rate: 0.7 mL/min, detection

[2] = target: T1, human serum albumin (HSA); experiment: HPLC on HSA-based chiral stationary phase (Daicel Chiralpak HSA column); type: binding; conditions: HSA column, 10 mM pH 7 phosphate buffer, 25 °C
Method: (§1) HPLC using a protein-based chiral stationary phase is a fully automated method for obtaining rapid information about the binding of compounds to the respective proteins. Enantioseparation occurs in the case of unequal binding constants of the individual enantiomers to the immobilized proteins, thus allowing enantioselective binding to be characterized even when a racemic mixture was injected. As a preliminary step, the enantiospecific binding was investigated on columns containing AGP and HSA in various alcohol:buffer mixtures. A pH 7 phosphate buffer was employed as the aqueous part of the mobile phase, while for the organic part, three different alcohols were evaluated.
In the following step, we investigated the effect of changing some other chromatographic conditions on the protein binding. The pH of the aqueous phase influenced the protonation state of both the analyte and the proteins. It should be noted that the pH tolerance of protein-based columns is narrow due to the possible denaturation of proteins. Taking into account the guidelines of the manufacturer, three different pH values were investigated (pH 6, 6.5, and 7) at a 95:5 (v/v%) buffer:IPA eluents ratio [49]. The buffer was uniformly 10 mM phosphate. […] The effect of different buffer constituents was also evaluated. In addition to phosphate buffer, ammonium acetate, ammonium bicarbonate, and sodium citrate were tested and compared under the same conditions.
(§2) Chromatographic measurements were carried out on two separate HPLC systems. The AGP binding study was performed on a Waters 2695e chromatographic system paired with a Waters 2996 PDA detector, controlled by Empower 3 FR5 (Waters Corp., Milford, MA, USA), while the HSA binding study was performed on an Agilent 1100 HPLC system, consisting of an inline degasser (G1322A), a quaternary pump (G1311A), an automatic injector (G1329A) paired with sample thermostat (G1330A), a column thermostat (G1316A), and a diode array detector (G1315A) with Agilent Chemstation B04.03-SP2 software (Agilent, Bronnwald, Germany). For the binding studies, two protein-based chiral stationary phases were utilized. The chromatographic binding study for AGP was conducted on a ChromTech Chiral-AGP column (150 mm × 4.0 mm; ChromTech Ltd., Congleton, UK), while the binding study for HSA was performed on a Daicel Chiralpak HSA column (50 mm × 4.0 mm; Daicel Corp., Osaka, Japan). The detection wavelength was 210 nm for all measurements. The stock solutions of PPIs were prepared at a concentration of 1 mg/mL in MeOH. Subsequent dilutions were prepared using water. The injected samples were mixed and diluted from the stock solutions. The final concentration for the eutomer was 0.2 mg/mL, and for the distomer, it was 0.1 mg/mL. A volume of 2 μL was injected. To mitigate the instability of PPIs in aqueous solutions, the samples were kept at a temperature of 4 °C.

[3] = test system: α1-acid glycoprotein (AGP); experiment: HPLC on AGP-based chiral stationary phase (ChromTech Chiral-AGP column); type: binding, human; conditions: 10 mM pH 7 phosphate buffer, 25 °C
Method: as §1, with “evaluated. […]” for “evaluated.”
as §2

T1 sequence (P02768 25-609): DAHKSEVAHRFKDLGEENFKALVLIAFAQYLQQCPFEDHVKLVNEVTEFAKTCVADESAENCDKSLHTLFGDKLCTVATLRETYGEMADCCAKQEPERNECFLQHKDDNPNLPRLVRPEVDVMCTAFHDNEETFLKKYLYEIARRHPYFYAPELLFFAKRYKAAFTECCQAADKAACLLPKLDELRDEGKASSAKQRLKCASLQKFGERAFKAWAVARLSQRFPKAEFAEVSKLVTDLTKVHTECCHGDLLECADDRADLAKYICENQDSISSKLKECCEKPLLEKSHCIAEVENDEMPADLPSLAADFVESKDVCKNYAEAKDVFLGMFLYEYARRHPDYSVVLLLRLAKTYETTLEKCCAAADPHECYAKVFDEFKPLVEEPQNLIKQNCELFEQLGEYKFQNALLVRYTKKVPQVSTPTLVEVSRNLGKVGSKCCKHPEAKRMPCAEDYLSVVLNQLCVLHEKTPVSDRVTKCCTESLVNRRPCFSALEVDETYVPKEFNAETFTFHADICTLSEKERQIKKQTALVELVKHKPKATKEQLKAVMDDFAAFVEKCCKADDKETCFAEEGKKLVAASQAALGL

k retention factor ([1]; ibuprofen 0 mM): 9.53
k retention factor ([1]; ibuprofen 0.01 mM): 7.96
k retention factor ([1]; ibuprofen 0.05 mM): 6.31
k retention factor ([1]; ibuprofen 0.1 mM): 5.22
k retention factor ([1]; warfarin 0 mM): 9.53
k retention factor ([1]; warfarin 0.01 mM): 8.57
k retention factor ([1]; warfarin 0.05 mM): 7.71
k retention factor ([1]; warfarin 0.1 mM): 6.98
k1 retention factor (first-eluting enantiomer) ([2]; 1% EtOH): 9.89
k2 retention factor (second-eluting enantiomer) ([2]; 1% EtOH): 9.89
k1 retention factor (first-eluting enantiomer) ([2]; 1% IPA): 9.53
k2 retention factor (second-eluting enantiomer) ([2]; 1% IPA): 9.53
k1 retention factor (first-eluting enantiomer) ([2]; 1% MeOH): 7.79
k2 retention factor (second-eluting enantiomer) ([2]; 1% MeOH): 7.79
k1 retention factor (first-eluting enantiomer) ([2]; 2.5% EtOH): 5.53
k2 retention factor (second-eluting enantiomer) ([2]; 2.5% EtOH): 5.53
k1 retention factor (first-eluting enantiomer) ([2]; 2.5% IPA): 8.66
k2 retention factor (second-eluting enantiomer) ([2]; 2.5% IPA): 8.66
k1 retention factor (first-eluting enantiomer) ([2]; 2.5% MeOH): 6.37
k2 retention factor (second-eluting enantiomer) ([2]; 2.5% MeOH): 6.37
k1 retention factor (first-eluting enantiomer) ([2]; 5% EtOH): 3.68
k2 retention factor (second-eluting enantiomer) ([2]; 5% EtOH): 3.68
k1 retention factor (first-eluting enantiomer) ([2]; 5% IPA): 4.34
k2 retention factor (second-eluting enantiomer) ([2]; 5% IPA): 4.34
k1 retention factor (first-eluting enantiomer) ([2]; 5% MeOH): 4.95
k2 retention factor (second-eluting enantiomer) ([2]; 5% MeOH): 4.95
k1 retention factor (first-eluting enantiomer) ([2]; 7.5% EtOH): 2.61
k2 retention factor (second-eluting enantiomer) ([2]; 7.5% EtOH): 2.61
k1 retention factor (first-eluting enantiomer) ([2]; 7.5% IPA): 2.82
k2 retention factor (second-eluting enantiomer) ([2]; 7.5% IPA): 2.82
k1 retention factor (first-eluting enantiomer) ([2]; 7.5% MeOH): 3.82
k2 retention factor (second-eluting enantiomer) ([2]; 7.5% MeOH): 3.82
k1 retention factor (first-eluting enantiomer) ([2]; 10% EtOH): 1.97
k2 retention factor (second-eluting enantiomer) ([2]; 10% EtOH): 1.97
k1 retention factor (first-eluting enantiomer) ([2]; 10% IPA): 2.03
k2 retention factor (second-eluting enantiomer) ([2]; 10% IPA): 2.03
k1 retention factor (first-eluting enantiomer) ([2]; 10% MeOH): 2.97
k2 retention factor (second-eluting enantiomer) ([2]; 10% MeOH): 2.97
k1 retention factor (first-eluting enantiomer) ([2]; 12.5% IPA): 1.50
k2 retention factor (second-eluting enantiomer) ([2]; 12.5% IPA): 1.50
Compound: COc1ccc2[nH]c([S+]([O-])Cc3ncc(C)c(OC)c3C)nc2c1 (centres unmarked) [Omeprazole, omeprazole]
k1 retention factor (first-eluting enantiomer) ([3]; 2.5% IPA): 13.24
k2 retention factor (second-eluting enantiomer) ([3]; 2.5% IPA): 16.18
k1 retention factor (first-eluting enantiomer) ([3]; 5% EtOH): 12.69
k2 retention factor (second-eluting enantiomer) ([3]; 5% EtOH): 15.14
k1 retention factor (first-eluting enantiomer) ([3]; 5% IPA): 5.46
k2 retention factor (second-eluting enantiomer) ([3]; 5% IPA): 5.46
k1 retention factor (first-eluting enantiomer) ([3]; 5% MeOH): 25.74
k2 retention factor (second-eluting enantiomer) ([3]; 5% MeOH): 37.33
k1 retention factor (first-eluting enantiomer) ([3]; 7.5% EtOH): 6.57
k2 retention factor (second-eluting enantiomer) ([3]; 7.5% EtOH): 7.20
k1 retention factor (first-eluting enantiomer) ([3]; 7.5% IPA): 2.88
k2 retention factor (second-eluting enantiomer) ([3]; 7.5% IPA): 2.88
k1 retention factor (first-eluting enantiomer) ([3]; 7.5% MeOH): 15.56
k2 retention factor (second-eluting enantiomer) ([3]; 7.5% MeOH): 21.41
k1 retention factor (first-eluting enantiomer) ([3]; 10% EtOH): 4.02
k2 retention factor (second-eluting enantiomer) ([3]; 10% EtOH): 4.02
k1 retention factor (first-eluting enantiomer) ([3]; 10% IPA): 1.87
k2 retention factor (second-eluting enantiomer) ([3]; 10% IPA): 1.87
k1 retention factor (first-eluting enantiomer) ([3]; 10% MeOH): 9.95
k2 retention factor (second-eluting enantiomer) ([3]; 10% MeOH): 13.05
k1 retention factor (first-eluting enantiomer) ([3]; 12.5% IPA): 1.33
k2 retention factor (second-eluting enantiomer) ([3]; 12.5% IPA): 1.33
k1 retention factor (first-eluting enantiomer) ([3]; 15% EtOH): 1.81
k2 retention factor (second-eluting enantiomer) ([3]; 15% EtOH): 1.81
k1 retention factor (first-eluting enantiomer) ([3]; 15% IPA): 1.01
k2 retention factor (second-eluting enantiomer) ([3]; 15% IPA): 1.01
k1 retention factor (first-eluting enantiomer) ([3]; 15% MeOH): 6.70
k2 retention factor (second-eluting enantiomer) ([3]; 15% MeOH): 8.43
